Test results reported in patent US20180280329A1, “INHIBITORS OF PLASMINOGEN FOR TREATING, REDUCING OR PREVENTING RADIATION-INDUCED INJURIES” (OMNIO AB, priority 2015, published 2018).

What was measured:
plasminogen = target: T1, plasminogen (Mus musculus, UniProt P20918); assay: Burn wound model: plasminogen accumulation in wound skin extracts (ELISA); assay type: in vivo; conditions: WT mice, TXA 800 mg/kg injected three times at 8 h intervals, skin at 24 h after wounding, compared to mice treated with PBS
T1 construct: Burn wounds were introduced to three WT mice and TXA (800 mg/kg) was injected three times at 8 h intervals; from tissue; host or cells: skin of wild-type mice (burn wound), in vivo
Method: Dorsal skin samples from irradiated and not-irradiated control mice were homogenized in a lysis buffer (50 mM Tris-HCl buffer pH 8.0 with 120 mM NaCl, 1 mM EDTA, 6 mM EGTA, 1% NP-40 and 1 mM DTT) supplemented with PhosSTOP phosphatase inhibitors and Complete Ultra mini protease inhibitor cocktail tablets (both from Roche, Basel, Switzerland). The skin extracts were then kept at −20° C. until use. Total protein concentration in the extracts was quantified using Pierce BCA protein assay kit, according to the manufactural instruction (ThermoFisher Scientific, Waltham, U.S.A). Mouse IL-6 and TNF-alpha levels in the extracts were measured using specific ELISA kits from eBioscience (San Diego, U.S.A). Mouse plasminogen was quantified with a mouse plasminogen-specific ELISA (Omnio AB, Umeå, Sweden).
Mice were anesthetized with Dormicum/Hypnorm and burn wounds were made with a brass stave as described previously (Shen et al. 2012, Blood 119:5879). The mice were given a single injection of Temgesic (Schering-Plough, Brussels, Belgium) the day after burning. All mice were individually caged, and wounds were neither sutured nor dressed.
Initially, the burn wound model (Shen et al. 2012, Blood 119:5879) was used to test whether TXA has an effect on plasminogen accumulation in the wound. […]

TGF-β = assay: Quantitative RT-PCR of irradiated skin: TGF-β mRNA; assay type: in vivo, mouse; conditions: irradiated WT mice, TXA in drinking water, day 9 after irradiation
Method: (§1) Skin samples were homogenized in TRIzol (Ambion) using Precellys CK28R tubes on a Precellys 24 homogenizer (both from Bertin Technologies, France) according to the manufacturer's instructions. Total RNA was extracted with PureLink RNA Mini Kit (Ambion) according to the manufacturer's instruction. 2.5 μg of total RNA was reverse transcribed using Superscript VILO cDNA synthesis kit (Invitrogen) and diluted 3 fold with DEPC-water. Expression of genes were analyzed using quantitative real-time PCR with Comparative CT method and with TBP mRNA as the internal reference gene. The gene-specific primers and probes (TaqMan Gene Expression Assays) were from Applied Biosytems, and 2× SsoAdvanced Universal Probes Supermix was from BIO-RAD. Each sample was run in triplicate on StepOnePlus Instrument (Applied Biosystems) using real-time PCR cycling conditions for 2× SsoAdvanced Universal Probes Supermix.
(§2) In this experiment, mice were treated as in Example 3, with the exception that TXA was given in drinking water in dose 700 mg/kg/day. Real-time PCR was performed as described in Example 3.

IL-1β = assay: Quantitative RT-PCR of irradiated skin: IL-1β mRNA; assay type: in vivo, mouse; conditions: irradiated WT mice, TXA in drinking water, day 9 after irradiation
Method: as §1, §2

IL-6 = assay: Quantitative RT-PCR of irradiated skin: IL-6 mRNA; assay type: in vivo, mouse; conditions: irradiated WT mice, TXA in drinking water, day 9 after irradiation
Method: as §1, §2

PAI-1 = assay: Quantitative RT-PCR of irradiated skin: PAI-1 mRNA; assay type: in vivo, mouse; conditions: irradiated WT mice, TXA in drinking water, day 9 after irradiation
Method: as §1, §2

[1] = test system: radiation-induced dermatitis; assay: Radiation-induced dermatitis model (15 Gy to dorsal skin), radio-dermatitis documented by photos and scored; assay type: in vivo, mouse; conditions: for development and severity of radio-dermatitis: irradiated WT mice
Method: Dorsal skin of mice had been shaved 3 days prior to irradiation. For the irradiation, the mice were anesthetized by intraperitoneal injection of 150 μl mixture containing Ketaminol vet. (Intervet AB, Sollentuna, Sweden) and Dormitor vet. (Orion Pharma AB, Espoo, Finland). Mice were laid into a lead box to protect the whole body from irradiation, while the dorsal skin was gently stretched out through a 4 cm-long gap in the bottom of the box and maintained with medical tape. Irradiation box with a mouse was then placed in Gammacell 40 exactor (Ashford, UK) that has two Caesium-137 sources. Irradiation was given as a single dose of 1 Gy per minute over 15 min (total dose 15 Gy).
Digital photographs of the dorsal skin were taken on the specified days after irradiation. The wound size was quantified using Image J (National Institute of Mental Health, Bethesda, Md.). Severity of radio-dermatitis was scored, with the scores defined as: 0=normal, 1=erythema, 2=desquamation, 3=ulcer.
WT and plg^+/− were intraperitoneally injected with 800 mg/kg of TXA in PBS three times per day. The injections started 2 days before the irradiation and continued for 15 days after the irradiation. Development of dermatitis was documented by digital photos and skin samples were analyzed as described in Example 2.
as §2

T1 sequence (P20918 20-812 limits assumed): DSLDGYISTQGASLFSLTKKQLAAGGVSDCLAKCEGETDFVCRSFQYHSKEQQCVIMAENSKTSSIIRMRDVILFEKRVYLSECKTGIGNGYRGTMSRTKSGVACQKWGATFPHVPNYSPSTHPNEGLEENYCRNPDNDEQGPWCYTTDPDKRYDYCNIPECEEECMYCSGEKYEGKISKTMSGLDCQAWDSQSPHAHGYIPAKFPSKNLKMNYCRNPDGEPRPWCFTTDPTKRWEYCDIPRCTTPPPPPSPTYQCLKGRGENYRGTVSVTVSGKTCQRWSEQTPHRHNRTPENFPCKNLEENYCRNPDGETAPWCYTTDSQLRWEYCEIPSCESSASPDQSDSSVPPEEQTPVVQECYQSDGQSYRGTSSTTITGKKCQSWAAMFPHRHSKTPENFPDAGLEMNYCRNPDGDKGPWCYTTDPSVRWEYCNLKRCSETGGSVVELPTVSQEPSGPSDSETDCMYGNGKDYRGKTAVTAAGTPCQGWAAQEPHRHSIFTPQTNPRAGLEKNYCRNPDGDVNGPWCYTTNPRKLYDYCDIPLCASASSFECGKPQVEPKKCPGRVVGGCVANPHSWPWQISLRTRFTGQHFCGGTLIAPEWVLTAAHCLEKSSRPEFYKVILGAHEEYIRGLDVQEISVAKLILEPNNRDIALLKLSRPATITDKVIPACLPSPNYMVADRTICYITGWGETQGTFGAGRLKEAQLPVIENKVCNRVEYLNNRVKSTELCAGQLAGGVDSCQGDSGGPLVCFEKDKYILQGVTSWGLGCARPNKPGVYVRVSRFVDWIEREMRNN

inhibition of plasminogen accumulation in wounds (plasminogen): 50%
Compound: NC[C@H]1CC[C@H](C(=O)O)CC1 [TXA, trans-4 (aminomethyl) cyclohexanecarboxylic acid]
expression of TGF-β in skin (TGF-β): decreased expression
level of IL-1β expression in skin (IL-1β): very low
expression of IL-6 in skin (IL-6): decreased expression
expression of PAI-1 in skin (PAI-1): decreased expression
development and severity of radio-dermatitis ([1]; TXA 800 mg/kg intraperitoneally three times per day, from 2 days before to 15 days after irradiation, vs carrier): delayed development of dermatitis and with a lower severity
development and severity of radio-dermatitis ([1]; TXA in drinking water 700 mg/kg/day, vs control WT mice treated with water only): significant delay in development of radio-dermatitis and a lower severity of skin damage
development of radio-dermatitis ([1]; irradiated plg+/- mice, TXA 800 mg/kg intraperitoneally three times per day, from 2 days before to 15 days after irradiation): completely blocked
formation of radiodermatitis ([1]; irradiated plg+/- mice, TXA in drinking water 700 mg/kg/day): totally inhibited formation of radiodermatitis
